Square brackets hold non-standard residues; d marks the D form. Peptide text beside a SMILES is read from it. * marks the point of attachment. DOTA(Ga) = O=C1CN2CCN3CCN(CC(=O)*)CCN(CC2)CC(=O)[O][Ga]([O]1)[O]C(=O)C3; DOTAGA = O=C(O)CN1CCN(CC(=O)O)CCN(C(CCC(=O)*)C(=O)O)CCN(CC(=O)O)CC1; DOTA = O=C(O)CN1CCN(CC(=O)O)CCN(CC(=O)*)CCN(CC(=O)O)CC1; Pyrrolidine(2S-CN,4,4-F2) = N#C[C@@H]1CC(F)(F)CN1*; X6 = CN1CC(=O)C2(C1)OC([C@@H]1CCCN1*)OC2=O; boroPro = OB(O)[C@@H]1CCCN1*
target: recombinant human prolyl oligopeptidase (PREP) (Homo sapiens (Human), UniProt P48147); assay: In vitro assay prolyl oligopeptidase IC50 (Example 21); type: biochemical; conditions: not given
Sequence (P48147 whole entry): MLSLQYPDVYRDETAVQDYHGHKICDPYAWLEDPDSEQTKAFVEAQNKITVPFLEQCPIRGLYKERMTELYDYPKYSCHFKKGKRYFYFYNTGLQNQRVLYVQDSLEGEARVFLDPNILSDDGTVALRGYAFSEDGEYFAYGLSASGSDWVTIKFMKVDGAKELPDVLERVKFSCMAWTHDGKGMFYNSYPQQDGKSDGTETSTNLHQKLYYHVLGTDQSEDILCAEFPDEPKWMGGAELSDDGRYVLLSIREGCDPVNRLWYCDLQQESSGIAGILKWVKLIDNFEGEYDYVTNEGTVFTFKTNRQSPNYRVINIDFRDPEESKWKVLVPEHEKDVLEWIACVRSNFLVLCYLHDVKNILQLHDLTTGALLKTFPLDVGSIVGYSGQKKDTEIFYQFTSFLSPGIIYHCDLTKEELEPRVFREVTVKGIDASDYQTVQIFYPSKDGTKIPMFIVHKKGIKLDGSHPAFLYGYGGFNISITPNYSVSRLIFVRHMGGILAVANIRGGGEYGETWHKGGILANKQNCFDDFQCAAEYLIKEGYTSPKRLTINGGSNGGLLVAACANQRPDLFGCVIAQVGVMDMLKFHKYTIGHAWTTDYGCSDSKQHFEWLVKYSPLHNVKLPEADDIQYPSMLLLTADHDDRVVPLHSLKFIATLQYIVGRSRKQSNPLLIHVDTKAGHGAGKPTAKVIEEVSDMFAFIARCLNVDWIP
Protocol: (§1) The purpose of this assay is to determine the IC50 of various inhibitors against recombinant human dipeptidyl peptidase IV (DPPIV), fibroblast activation protein (FAP) or prolyl oligopeptidase (PREP).
(§2) The assays are conducted in the following steps: • 1 Dissolve the compound in DMSO to a final concentration of 100 mM. From this, prepare a 1 mM stock at pH 7.5 in 50 mM Tris, 140 mM NaCl Buffer (FAP)/pH 7.5 in 25 mM Tris, 250 mM NaCl Buffer/[…]. • 2. Serial dilute (1:10) the 1 mM compound stocks prepared previously into the appropriate assay buffer (FAP: 50 mM Tris, 140 mM NaCl, pH 7.5/PREP: 25 mM Tris, 0.25 M NaCl, pH 7.5/DPPIV: 25 mM Tris, pH 8.0) to one row of a 96-well plate. • 3. […] Dilute the enzymes into their appropriate assay buffers. The final enzyme concentrations should be 0.1, 1.2, and 0.6 nM for DPPIV, FAP and PREP respectively. Add 180 μL to each well needed in columns 2-10. Column 1(A,B,C) should be prepared with 200 μl of appropriate assay buffer as control. Column 1(D,E,F,G,H) should be prepared with 20 μl of appropriate assay buffer and 180 ul enzyme as no inhibitor control. • 5. Add 20 μL of the compound of interest from the dilution plate prepared in step 2 to columns 2-10 of the assay plate where appropriate. Each sample should be tested in triplicate. Allow this to incubate for 10 minutes at room temperature, shaking the plate for the first two minutes. • 6. Add 10 μL of 20× substrate prepared in step 3 to each well and allow this to incubate for 15 minutes at room temperature, shaking the plate for the first two minutes. • 7. Read the fluorescence at λex: 380, λem: 460. (DPcore=[dAla|dSer|Gly]-[boroPro|Pro-nitrile], XXaa=alpha-amino acid)

Compound | IC50 [nM]
C[C@@H](NC(=O)c1ccc(NC(=O)CCCCNC(=O)CN2CCN(CC(=O)O)CCN(CC(=O)O)CCN(CC(=O)O)CC2)cc1)C(=O)N1CCC[C@H]1B(O)O [compound 6590] | 129
C[C@@H](NC(=O)c1ccc(NNC(=O)CCCCCNC(=O)CN2CCN3CCN4CCN(CC2)CC(=O)[O][Lu]([O]C(=O)C3)[O]C(=O)C4)nc1)C(=O)N1CCC[C@H]1B(O)O [6609LU] | 60

same assay, conditions: Z-Gly-Pro-AMC; 0.6 nM enzyme

IC50 [nM] | Compound
5520 | CC(C)[C@H](NC(=O)CNC(=O)CCC(C(=O)O)N1CCN(CC(=O)O)CCN(CC(=O)O)CCN(CC(=O)O)CC1)C(=O)N[C@H](C)C(=O)N1CCC[C@H]1B(O)O (stereo partly drawn) [compound 6795]
157000 | CC(C)[C@H](NC(=O)CNC(=O)CNC(=O)CN1CCN(CC(=O)O)CCN(CC(=O)O)CCN(CC(=O)O)CC1)C(=O)N[C@H](C)C(=O)N1CC(F)(F)C[C@H]1C#N [compound 6790] ({DOTA}-GGV[dA]-{Pyrrolidine(2S-CN,4,4-F2)})

Compound | IC50 [nM]
C[C@@H](NC(=O)CN1CCN2CC(=O)O[C]3(CN4CCN5CC(=O)O[C](C1)(C5)[Gd]3[O]C(=O)C4)C2)C(=O)N1CCC[C@H]1B(O)O (stereo partly drawn) [4535GD] | > 10000

target: recombinant human fibroblast activation protein (FAP) (Homo sapiens (Human), UniProt Q12884); assay: In vitro assay fibroblast activation protein IC50 (Example 21); type: biochemical; conditions: not given
Sequence (Q12884 whole entry): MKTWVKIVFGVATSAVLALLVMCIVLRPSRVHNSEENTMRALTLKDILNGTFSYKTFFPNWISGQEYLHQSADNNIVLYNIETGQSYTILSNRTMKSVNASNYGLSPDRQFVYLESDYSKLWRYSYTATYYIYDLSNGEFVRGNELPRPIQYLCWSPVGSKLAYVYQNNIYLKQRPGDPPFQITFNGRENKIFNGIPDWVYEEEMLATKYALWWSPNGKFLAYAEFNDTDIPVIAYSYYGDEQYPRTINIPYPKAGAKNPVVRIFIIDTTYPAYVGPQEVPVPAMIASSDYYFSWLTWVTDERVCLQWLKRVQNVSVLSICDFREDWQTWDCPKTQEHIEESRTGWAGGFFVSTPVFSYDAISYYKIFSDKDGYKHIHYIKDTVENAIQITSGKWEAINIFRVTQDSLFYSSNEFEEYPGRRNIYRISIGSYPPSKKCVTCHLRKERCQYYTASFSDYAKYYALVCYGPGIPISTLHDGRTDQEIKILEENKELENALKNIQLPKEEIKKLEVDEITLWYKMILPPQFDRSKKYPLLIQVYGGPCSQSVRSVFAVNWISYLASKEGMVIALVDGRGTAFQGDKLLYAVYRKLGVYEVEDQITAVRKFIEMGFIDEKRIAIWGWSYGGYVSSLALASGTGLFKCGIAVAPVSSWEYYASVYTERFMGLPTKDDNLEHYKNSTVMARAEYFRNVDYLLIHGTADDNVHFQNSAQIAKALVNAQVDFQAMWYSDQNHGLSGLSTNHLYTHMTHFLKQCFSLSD
Protocol: as §1, §2

Compound | IC50 [nM]
C[C@@H](NC(=O)c1ccc(NC(=O)CCCCNC(=O)CN2CCN(CC(=O)O)CCN(CC(=O)O)CCN(CC(=O)O)CC2)cc1)C(=O)N1CCC[C@H]1B(O)O [compound 6590] | 1.6
C[C@@H](NC(=O)c1ccc(NNC(=O)CCCCCNC(=O)CN2CCN3CCN4CCN(CC2)CC(=O)[O][Lu]([O]C(=O)C3)[O]C(=O)C4)nc1)C(=O)N1CCC[C@H]1B(O)O [6609LU] | 1
C[C@@H](NC(=O)c1ccc(NNC(=O)CCCNC(=O)CN2CCN3CCN4CCN(CC2)CC(=O)[O][Gd]([O]C(=O)C3)[O]C(=O)C4)nc1)C(=O)N1CCC[C@H]1B(O)O [6489 GD] | 1.1
C[C@@H](NC(=O)c1ccc(NNC(=O)CN2CCN3CCN(CC(=O)O)CCN(CC2)CC(=O)[O][Cu][O]C(=O)C3)cc1)C(=O)N1CCC[C@H]1B(O)O [5183BU] | 10.3
C[C@@H](NC(=O)c1ccc(NC(=O)CCCCNC(=O)CN2CCN3CCN4CCN(CC2)CC(=O)[O][Ga]([O]C(=O)C3)[O]C(=O)C4)cc1)C(=O)N1CCC[C@H]1B(O)O [6590 GA] | 15
C[C@@H](NC(=O)c1ccc(NNC(=O)CNC(=O)CN2CCN3CCN(CC(=O)O)CCN(CC2)CC(=O)[O][Cu][O]C(=O)C3)cc1)C(=O)N1CCC[C@H]1B(O)O [6487CU] | 8.8
C[C@@H](NC(=O)c1ccc(NNC(=O)CN2CCN3CCN4CCN(CC2)CC(=O)[O][Ga]([O]C(=O)C3)[O]C(=O)C4)nc1)C(=O)N1CCC[C@H]1B(O)O [5183GA] | 46.1
C[C@@H](NC(=O)c1ccc(NNC(=O)CCCCCNC(=O)CN2CCN(CC(=O)O)CCN(CC(=O)O)CCN(CC(=O)O)CC2)nc1)C(=O)N1CCC[C@H]1B(O)O [compound 6958] | 3.2
CC(C)[C@H](NC(=O)c1ccc(CNC(=O)CN2CCN3CCN4CCN(CC2)CC(=O)[O][Ga]([O]C(=O)C3)[O]C(=O)C4)cc1)C(=O)N[C@H](C)C(=O)N1CCC[C@H]1B(O)O [6967 GA] | 65
C[C@@H](NC(=O)c1ccc(NC(=O)CCNC(=O)CN2CCN3CCN4CCN(CC2)CC(=O)[O][Lu]([O]C(=O)C3)[O]C(=O)C4)cc1)C(=O)N1CCC[C@H]1B(O)O [6590LU] | 0.4

same assay, conditions: Z-Gly-Pro-AMC; 1.2 nM enzyme

Compound | IC50 [nM]
C[C@@H](NC(=O)CN1CCN2CC(=O)O[C]3(CN4CCN5CC(=O)O[C](C1)(C5)[Gd]3[O]C(=O)C4)C2)C(=O)N1CCC[C@H]1B(O)O (stereo partly drawn) [4535GD] | 760
CC(C)[C@H](NC(=O)CNC(=O)CCC(C(=O)O)N1CCN(CC(=O)O)CCN(CC(=O)O)CCN(CC(=O)O)CC1)C(=O)N[C@H](C)C(=O)N1CCC[C@H]1B(O)O (stereo partly drawn) [compound 6795] | 8.9
CC(C)[C@H](NC(=O)CNC(=O)CNC(=O)CNC(=O)CNC(=O)CNC(=O)CNC(=O)CCC(C(=O)O)N1CCN(CC(=O)O)CCN(CC(=O)O)CCN(CC(=O)O)CC1)C(=O)N[C@H](C)C(=O)N1CCC[C@H]1B(O)O (stereo partly drawn) [compound 6870] ({DOTAGA}-GGGGGGV[dA]-boroPro) | 9.2
CC(C)[C@H](NC(=O)CNC(=O)CNC(=O)CNC(=O)CNC(=O)CN1CCN2CCN3CCN(CC1)CC(=O)[O][Ga]([O]C(=O)C2)[O]C(=O)C3)C(=O)N[C@H](C)C(=O)N1CCC[C@H]1B(O)O [6839GA] ({DOTA(Ga)}-GGGGV[dA]-boroPro) | 258
CC(C)[C@H](NC(=O)CCCCNC(=O)CN1CCN2CCN3CCN(CC1)CC(=O)[O][Lu]([O]C(=O)C2)[O]C(=O)C3)C(=O)N[C@H](C)C(=O)N1CCC[C@H]1B(O)O [6940LU, DOTA(Lu)-PEN-Val-Dala-boroPro] | 23.6
CC(C)[C@H](NC(=O)CNC(=O)CNC(=O)CN1CCN(CC(=O)O)CCN(CC(=O)O)CCN(CC(=O)O)CC1)C(=O)N[C@H](C)C(=O)N1CC(F)(F)C[C@H]1C#N [compound 6790] ({DOTA}-GGV[dA]-{Pyrrolidine(2S-CN,4,4-F2)}) | 107
CC(C)[C@H](NC(=O)CNC(=O)CNC(=O)CNC(=O)CN1CCN2CCN3CCN(CC1)CC(=O)[O][Ga]([O]C(=O)C2)[O]C(=O)C3)C(=O)N[C@H](C)C(=O)N1CCC[C@H]1B(O)O [6834GA] ({DOTA(Ga)}-GGGV[dA]-boroPro) | 439
CC(C)[C@H](NC(=O)CNC(=O)CNC(=O)CNC(=O)CCC(C(=O)O)N1CCN(CC(=O)O)CCN(CC(=O)O)CCN(CC(=O)O)CC1)C(=O)N[C@H](C)C(=O)N1CCC[C@H]1B(O)O (stereo partly drawn) [compound 6808] ({DOTAGA}-GGGV[dA]-boroPro) | 11.5
CC(C)[C@H](NC(=O)CCCNC(=O)CN1CCN2CCN3CCN(CC1)CC(=O)[O][Ga]([O]C(=O)C2)[O]C(=O)C3)C(=O)N[C@H](C)C(=O)N1CCC[C@H]1B(O)O [6614GA, DOTA(Ga)-GABA-Val-D-ala-boroPro] | 218
CC(C)[C@H](NC(=O)CNC(=O)CN1CCN2CCN3CCN(CC1)CC(=O)[O][Ga]([O]C(=O)C2)[O]C(=O)C3)C(=O)N[C@H](C)C(=O)N1CCC[C@H]1B(O)O [6521GA] | 277
CC(C)[C@H](NC(=O)CNC(=O)CNC(=O)CN1CCN(CC(=O)O)CCN(CC(=O)O)CCN(CC(=O)O)CC1)C(=O)N[C@H](C)C(=O)N1CCC[C@H]1C1OC(=O)C2(CN(C)CC2=O)O1 (stereo partly drawn) [6522M] ({DOTA}-GGV[dA]-X6) | 280
CC(C)[C@H](NC(=O)CCCCCNC(=O)CN1CCN2CCN3CCN(CC1)CC(=O)[O][Ga]([O]C(=O)C2)[O]C(=O)C3)C(=O)N[C@H](C)C(=O)N1CCC[C@H]1B(O)O [6948GA, DOTA(Ga)-HEX-Val-Dala-boroPro] | 144
CC(C)[C@H](NC(=O)CNC(=O)CNC(=O)CNC(=O)CNC(=O)CNC(=O)CN1CCN2CCN3CCN(CC1)CC(=O)[O][Ga]([O]C(=O)C2)[O]C(=O)C3)C(=O)N[C@H](C)C(=O)N1CCC[C@H]1B(O)O [6848GA] ({DOTA(Ga)}-GGGGGV[dA]-boroPro) | 180
CC(C)[C@H](NC(=O)CNC(=O)CNC(=O)CNC(=O)CN1CCN(CC(=O)O)CCN(CC(=O)O)CCN(CC(=O)O)CC1)C(=O)N[C@H](C)C(=O)N1CCC[C@H]1B(O)O [compound 6834] ({DOTA}-GGGV[dA]-boroPro) | 26.8
CC(C)[C@H](NC(=O)CCNC(=O)CN1CCN(CC(=O)O)CCN(CC(=O)O)CCN(CC(=O)O)CC1)C(=O)N[C@H](C)C(=O)N1CCC[C@H]1B(O)O [compound 6615, DOTA-betaala-Val-D-ala-boroPro] | 121
CC(C)[C@H](NC(=O)CCCCNC(=O)CN1CCN2CCN3CCN(CC1)CC(=O)[O][Ga]([O]C(=O)C2)[O]C(=O)C3)C(=O)N[C@H](C)C(=O)N1CCC[C@H]1B(O)O [6940GA, DOTA(Ga)-PEN-Val-Dala-boroPro] | 110
CC(C)[C@H](NC(=O)CNC(=O)CNC(=O)CNC(=O)CNC(=O)CNC(=O)CN1CCN(CC(=O)O)CCN(CC(=O)O)CCN(CC(=O)O)CC1)C(=O)N[C@H](C)C(=O)N1CCC[C@H]1B(O)O [compound 6848] ({DOTA}-GGGGGV[dA]-boroPro) | 14.8
CC(C)[C@H](NC(=O)CCCCCCCNC(=O)CN1CCN2CCN3CCN(CC1)CC(=O)[O][Ga]([O]C(=O)C2)[O]C(=O)C3)C(=O)N[C@H](C)C(=O)N1CCC[C@H]1B(O)O [6947GA, DOTA(Ga)-OCT-Val-Dala-boroPro] | 219
CC(C)[C@H](NC(=O)CNC(=O)CNC(=O)CNC(=O)CNC(=O)CNC(=O)CNC(=O)CN1CCN(CC(=O)O)CCN(CC(=O)O)CCN(CC(=O)O)CC1)C(=O)N[C@H](C)C(=O)N1CCC[C@H]1B(O)O [compound 6850] ({DOTA}-GGGGGGV[dA]-boroPro) | 21
CC(C)[C@H](NC(=O)CCCCNC(=O)CN1CCN(CC(=O)O)CCN(CC(=O)O)CCN(CC(=O)O)CC1)C(=O)N[C@H](C)C(=O)N1CCC[C@H]1B(O)O [compound 6940, DOTA-PEN-Val-D-alaboroPro] | 5.2
CC(C)[C@H](NC(=O)CNC(=O)CNC(=O)CNC(=O)CNC(=O)CNC(=O)CCC(C(=O)O)N1CCN(CC(=O)O)CCN(CC(=O)O)CCN(CC(=O)O)CC1)C(=O)N[C@H](C)C(=O)N1CCC[C@H]1B(O)O (stereo partly drawn) [compound 6869] ({DOTAGA}-GGGGGV[dA]-boroPro) | 1.1
CC(C)[C@H](NC(=O)CNC(=O)CNC(=O)CNC(=O)CNC(=O)CCC(C(=O)O)N1CCN(CC(=O)O)CCN(CC(=O)O)CCN(CC(=O)O)CC1)C(=O)N[C@H](C)C(=O)N1CCC[C@H]1B(O)O (stereo partly drawn) [compound 6868] ({DOTAGA}-GGGGV[dA]-boroPro) | 21
CC(C)[C@H](NC(=O)CCCCCCNC(=O)CN1CCN2CCN3CCN(CC1)CC(=O)[O][Ga]([O]C(=O)C2)[O]C(=O)C3)C(=O)N[C@H](C)C(=O)N1CCC[C@H]1B(O)O [6949GA] | 181
CC(C)[C@H](NC(=O)[C@@H](C)NC(=O)CNC(=O)CNC(=O)CNC(=O)CN1CCN(CC(=O)O)CCN(CC(=O)O)CCN(CC(=O)O)CC1)C(=O)N[C@H](C)C(=O)N1CCC[C@H]1B(O)O [compound 6839] ({DOTA}-GGG[dA]V[dA]-boroPro) | 21

Reference: patent US20240207292A1, “BORONIC ACID COMPOUNDS, COMPOSITIONS AND METHODS” (Trustees of Tufts College, priority 2021, published 2024)
